According to US8846739B2, “TGR5 agonists” (Exelixis Patent Company LLC, priority 2009, dated 2014):

Assays:
human TGR5 (h-TGR5) = biological target: T1, human TGR5 (h-TGR5) (Homo sapiens, UniProt Q8TDU6); experiment: TGR5/CRE-Luciferase Assay; type: cell-based; conditions: HEK 293 hTGR5/CRE-Luc cells, 6 hours incubation, read-out: CRE-Luc Agonist (EC50)
T1 sequence (Q8TDU6 1-330): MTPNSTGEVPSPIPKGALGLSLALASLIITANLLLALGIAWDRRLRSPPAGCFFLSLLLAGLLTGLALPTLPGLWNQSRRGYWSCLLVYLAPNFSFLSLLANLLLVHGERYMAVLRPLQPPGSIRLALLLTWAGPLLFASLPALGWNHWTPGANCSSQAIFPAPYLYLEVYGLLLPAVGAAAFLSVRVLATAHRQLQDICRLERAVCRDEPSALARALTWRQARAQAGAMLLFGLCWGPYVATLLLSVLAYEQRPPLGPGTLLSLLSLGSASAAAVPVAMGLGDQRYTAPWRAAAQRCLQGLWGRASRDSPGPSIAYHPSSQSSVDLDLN
Procedure, shortened: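 HEK 293 CRE-Luciferase cells stably expressing the receptor, plated in DMEM 18-20 h before assay, then exposed to serially diluted compounds (DMEM with 5% DMSO) for 6 h. Luciferase read-out after lysis; EC50 from dose-response.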

h-TGR5 = biological target: T2, h-TGR5 (Homo sapiens, UniProt Q8TDU6); experiment: TGR5 cAMP Assay using Cisbio cAMP Dynamic 2 htrf assay kit; type: cell-based; conditions: hTGR5CRE-luc HEK 293 cells
T2 sequence (Q8TDU6 1-330): T1 sequence (Q8TDU6 1-330)

Compound | EC50 (human TGR5 (h-TGR5)) | EC50 (h-TGR5)
COc1cc(C(C)(C)c2cnc(SCc3c(F)cc(S(=O)(=O)N(C)[C@H](CCCC[N+](C)(C)C)C(=O)O)cc3F)n2-c2ccc(F)cc2)ccc1Cl [Compound 17k, (R)-5-carboxy-5-(4-((5-(2-(4-chloro-3-methoxyphenyl)propan-2-yl)-1-(4-fluoro-phenyl)-1H-imidazol-2-ylthio)methyl)-3,5-difluoro-N-methylphenylsulfonamido)-N,N,N-trimethylpentan-1-aminium 2,2,2-trifluoroacetate] | < 0.1 µM | < 0.1 µM
COc1cc(C(C)(C)c2cnc(SCc3c(F)cc(S(=O)(=O)N(C)[C@@H](CCCCC[N+](C)(C)C)C(=O)O)cc3Cl)n2-c2ccc(F)cc2)ccc1Cl [Compound 17l, (S)-6-carboxy-6-(3-chloro-4-((5-(2-(4-chloro-3-methoxyphenyl)propan-2-yl)-1-(4-fluorophenyl)-1H-imidazol-2-ylthio)methyl)-5-fluoro-N-methylphenylsulfonamido)-N,N,N-trimethylhexan-1-aminium 2,2,2-trifluoroacetate] | < 0.1 µM | < 0.1 µM
COc1cc(C(C)(C)c2cnc(CCc3c(F)cc(S(=O)(=O)N(CCC[N+](C)(C)C)[C@H](C)C(=O)O)cc3Cl)n2-c2ccc(F)cc2)ccc1Cl [Compound 17m, (R)-3-(N-(1-carboxyethyl)-3-chloro-4-(2-(5-(2-(4-chloro-3-methoxyphenyl)propan-2-yl)-1-(4-fluorophenyl)-1H-imidazol-2-yl)ethyl)-5-fluorophenylsulfonamido)-N,N,N-trimethylpropan-1-aminium 2,2,2-trifluoroacetate] | < 0.1 µM | < 0.1 µM
COc1cc(C(C)(C)c2cnc(CCc3c(F)cc(S(=O)(=O)N[C@@H](CCCC[N+](C)(C)C)C(=O)O)cc3Cl)n2-c2ccc(F)cc2)ccc1Cl [Compound 17n, (S)-5-carboxy-5-(3-chloro-4-(2-(5-(2-(4-chloro-3-methoxyphenyl)propan-2-yl)-1-(4-fluorophenyl)-1H-imidazol-2-yl)ethyl)-5-fluorophenylsulfonamido)-N,N,N-trimethylpentan-1-aminium 2,2,2-trifluoroacetate] | < 0.1 µM | < 0.1 µM
COc1cc(C(C)(C)c2cnc(CCc3c(F)cc(S(=O)(=O)N(C)[C@@H](CCCC[N+](C)(C)C)C(=O)O)cc3Cl)n2-c2ccc(F)cc2)ccc1Cl [Compound 17o, (S)-5-carboxy-5-(3-chloro-4-(2-(5-(2-(4-chloro-3-methoxyphenyl)propan-2-yl)-1-(4-fluorophenyl)-1H-imidazol-2-yl)ethyl)-5-fluoro-N-methylphenylsulfonamido)-N,N,N-trimethylpentan-1-aminium 2,2,2-trifluoroacetate] | < 0.1 µM | < 0.1 µM
COc1cc(C(C)(C)c2cnc(SCc3c(F)cc(C#CC[N+](C)(C)C)cc3F)n2-c2ccc(F)cc2)ccc1Cl [Compound 18, 3-(4-((5-(2-(4-Chloro-3-methoxyphenyl)propan-2-yl)-1-(4-fluorophenyl)-1H-imidazol-2-ylthio)methyl)-3,5-difluorophenyl)-N,N,N-trimethylprop-2-yn-1-aminium 4-methylbenzenesulfonate] | < 0.1 µM | < 0.1 µM
CC[N+](CC)(CC)CC#Cc1cc(F)c(CSc2ncc(C(C)(C)c3ccc(Cl)c(OC)c3)n2-c2ccc(F)cc2)c(F)c1 [Compound 18a, 3-(4-((-5-(2-(4-chloro-3-methoxyphenyl)propan-2-yl)-1-(4-fluorophenyl)-1H-imidazol-2-ylthio)methyl)-3,5-difluorophenyl)-N,N,N-triethylprop-2-yn-1-aminium chloride] | < 0.1 µM | < 0.1 µM
COc1cc(C(C)(C)c2cnc(SCc3c(F)cc(CCC[N+]45CCN(CC4)CC5)cc3F)n2-c2ccc(F)cc2)ccc1Cl [Compound 19, 1-(3-(4-((5-(2-(4-chloro-3-methoxyphenyl)propan-2-yl)-1-(4-fluorophenyl)-1H-imidazol-2-ylthio)methyl)-3,5-difluorophenyl)propyl)-4-aza-1-azoniabicyclo[2.2.2.2]octane 2,2,2-trifluoroacetate] | < 0.1 µM | < 0.1 µM
COc1cc(C(C)(C)c2cnc(SCc3c(F)cc(CCC[N+](C)(C)C)cc3F)n2-c2ccc(F)cc2)ccc1Cl [Compound 19a, 3-(4-((5-(2-(4-chloro-3-methoxyphenyl)propan-2-yl)-1-(4-fluorophenyl)-1H-imidazol-2-ylthio)methyl)-3,5-difluorophenyl)-N,N,N-trimethylpropan-1-aminium 2,2,2-trifluoroacetate] | < 0.1 µM | < 0.1 µM
COc1cc(-n2c(C(C)(C)c3ccc(F)c(Cl)c3)cnc2SCc2c(F)cc(CCC[N+](C)(C)C)cc2F)ccc1F [Compound 19b, 3-(4-((5-(2-(3-chloro-4-fluorophenyl)propan-2-yl)-1-(4-fluoro-3-methoxyphenyl)-1H-imidazol-2-ylthio)methyl)-3,5-difluorophenyl)-N,N,N-trimethylpropan-1-aminium 2,2,2-trifluoroacetate] | < 0.1 µM | < 0.1 µM
COc1ccc(C(C)(C)c2cnc(SCc3c(F)cc(CCC[N+](C)(C)C)cc3F)n2-c2ccc(F)cc2)cc1Cl [Compound 19c, 3-(4-((5-(2-(3-chloro-4-methoxyphenyl)propan-2-yl)-1-(4-fluorophenyl)-1H-imidazol-2-ylthio)methyl)-3,5-difluorophenyl)-N,N,N-trimethylpropan-1-aminium 2,2,2-trifluoroacetate] | < 0.1 µM | < 0.1 µM
COc1cc(C(C)(C)c2cnc(SCc3c(F)cc(CCC[N+](C)(C)C)cc3Cl)n2-c2ccc(F)cc2)ccc1Cl [Compound 19d, 3-(3-chloro-4-((5-(2-(4-chloro-3-methoxyphenyl)propan-2-yl)-1-(4-fluorophenyl)-1H-imidazol-2-ylthio)methyl)-5-fluorophenyl)-N,N,N-trimethylpropan-1-aminium 2,2,2-trifluoroacetate] | < 0.1 µM | < 0.1 µM
COc1cc(C(C)(C)c2cnc(SCc3c(F)cc(CCCC[N+](C)(C)C)cc3F)n2-c2ccc(F)cc2)ccc1Cl [Compound 19e, 4-(4-((5-(2-(4-chloro-3-methoxyphenyl)propan-2-yl)-1-(4-fluorophenyl)-1H-imidazol-2-ylthio)methyl)-3,5-difluorophenyl)-N,N,N-trimethylbutan-1-aminium 2,2,2-trifluoroacetate] | < 0.1 µM | < 0.1 µM
COc1cc(-n2c(C(C)(C)c3ccc(S(N)(=O)=O)c(Cl)c3)cnc2SCc2c(F)cc(CCC[N+](C)(C)C)cc2F)ccc1F [Compound 19f, 3-(4-((5-(2-(3-chloro-4-sulfamoylphenyl)propan-2-yl)-1-(4-fluoro-3-methoxyphenyl)-1H-imidazol-2-ylthio)methyl)-3,5-difluorophenyl)-N,N,N-trimethylpropan-1-aminium 2,2,2-trifluoroacetate] | < 0.1 µM | < 0.1 µM
COc1cc(C(C)(C)c2cnc(SCc3c(F)cc(OCC[N+](C)(C)C)cc3F)n2-c2ccc(F)cc2)ccc1Cl [Compound 20, 2-(4-((5-(2-(4-Chloro-3-methoxyphenyl)propan-2-yl)-1-(4-fluorophenyl)-1H-imidazol-2-ylthio)methyl)-3,5-difluorophenoxy)-N,N,N-trimethylethanaminium 2,2,2-trifluoroacetate] | < 0.1 µM | < 0.1 µM
CC[N+](CC)(CC)CCOc1cc(F)c(CSc2ncc(C(C)(C)c3ccc(Cl)c(OC)c3)n2-c2ccc(F)cc2)c(F)c1 [Compound 20a, 2-(4-((5(2-(4-chloro-3-methoxyphenyl)propan-2-yl)-(4-fluorophenyl)-1H-imidazol-2-ylthio)methyl)-3,5-difluorophenoxy)-N,N,N-triethylethanaminium chloride] | < 0.1 µM | < 0.1 µM
COc1cc(C(C)(C)c2cnc(SCc3c(F)cc(S(=O)(=O)N(CCC[N+]45CCN(CC4)CC5)[C@H](C)C(=O)O)cc3F)n2-c2ccc(F)cc2)ccc1Cl [Compound 22, (R)-1-(3-(N-(1-carboxyethyl)-4-((5-(2-(4-chloro-3-methoxyphenyl)propan-2-yl)-1-(4-fluorophenyl)-1H-Imidazol-2-ylthio)methyl)-3,5-difluorophenylsulfonamido)propyl)-4-aza-1-azoniabicyclo[2.2.2]octane chloride] | < 0.1 µM | < 0.1 µM
COc1cc(C(C)(C)c2cnc(SCc3c(F)cc(S(=O)(=O)N(CCCC[N+]45CCN(CC4)CC5)[C@H](C)C(=O)O)cc3F)n2-c2ccc(F)cc2)ccc1Cl [Compound 22a, N-[4-(4-aza-1-azoniabicyclo[2.2.2]oct-1-yl)butyl]-N-{[4-({[5-{1-[4-chloro-3-(methyloxy)phenyl]-1-methylethyl}-1-(4-fluorophenyl)-1H-imidazol-2-yl]thio}methyl)-3,5-difluorophenyl]sulfonyl}-D-alanine] | < 0.1 µM | < 0.1 µM
COc1cc(C(C)(C)c2cnc(SCc3c(F)cc(C(=O)NCC[N+](C)(C)C)cc3Cl)n2-c2ccc(F)cc2)ccc1Cl [Example 1, 2-(3-chloro-4-((S-(2-(4-chloro-3-methoxyphenyl)propan-2-yl)-1-(4-fluorophenyl)-1H-imidazol-2-ylthio)methyl)-S-fluorobenzamido)-N,N,N-trimethylethanaminium chloride] | < 0.1 µM | < 0.1 µM
